Each block holds one compound with its values, some of them ahead of it.
Columns and labels:
[1] = molecular target: T1, Peroxisome proliferator-activated receptor gamma (Homo sapiens, UniProt P37231); experiment: Activity at PPARgamma (unknown origin) assessed as transactivation activity by reporter gene assay
T1 sequence (P37231 whole entry): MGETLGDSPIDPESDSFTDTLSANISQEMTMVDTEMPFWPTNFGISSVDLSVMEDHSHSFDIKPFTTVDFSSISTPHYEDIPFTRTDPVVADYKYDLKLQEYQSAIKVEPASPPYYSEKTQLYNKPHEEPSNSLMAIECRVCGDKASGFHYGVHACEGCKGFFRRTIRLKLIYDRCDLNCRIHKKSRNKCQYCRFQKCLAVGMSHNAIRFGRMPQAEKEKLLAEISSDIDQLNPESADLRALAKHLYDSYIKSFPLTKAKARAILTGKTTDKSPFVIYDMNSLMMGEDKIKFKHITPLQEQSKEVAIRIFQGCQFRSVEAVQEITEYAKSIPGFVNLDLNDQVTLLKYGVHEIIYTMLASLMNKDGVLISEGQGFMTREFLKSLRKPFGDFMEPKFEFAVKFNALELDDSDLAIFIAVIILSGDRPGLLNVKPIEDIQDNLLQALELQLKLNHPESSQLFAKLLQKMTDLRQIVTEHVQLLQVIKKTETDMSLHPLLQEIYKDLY

[2] = molecular target: T1, Peroxisome proliferator-activated receptor gamma; experiment: Activity at human PPARgamma transfected in HEK293 cells assessed as transactivation activity after 24 hrs by Dual-luciferase reporter gene assay relative to rosiglitazone; format: cell-based
[3] = molecular target: T2, Peroxisome proliferator-activated receptor gamma (Homo sapiens) (UniProt P37231); experiment: Activity at PPARgamma (unknown origin) assessed as transactivation activity by reporter gene assay relative to rosiglitazone
T2 sequence (whole entry): T1 sequence (P37231 whole entry)

[4] = molecular target: T2, Peroxisome proliferator-activated receptor gamma (Homo sapiens); experiment: Activity at human full length PPARgamma transfected in COS7 cells assessed as transactivation activity by reporter gene assay relative to rosiglitazone; format: cell-based; conditions: COS-7
[5] = molecular target: T2, Peroxisome proliferator-activated receptor gamma (Homo sapiens); experiment: Activity at PPARgamma (unknown origin) transfected in 293T cells assessed as transactivation activity after 24 hrs by PPRE-TK- luciferase reporter gene assay relative to rosiglitazone; format: cell-based
[6] = molecular target: T2, Peroxisome proliferator-activated receptor gamma (Homo sapiens); experiment: Activity at human full length PPARgamma LBD transfected in COS7 cells assessed as transactivation activity by reporter gene assay relative to rosiglitazone; format: cell-based; conditions: COS-7
[7] = molecular target: T1, Peroxisome proliferator-activated receptor gamma; experiment: Activity at full length human PPARgamma transfected in CV1 cells assessed as transactivation activity after 24 hrs by PPRE-TK- luciferase reporter gene assay; format: cell-based, CV-1
[8] = molecular target: T2, Peroxisome proliferator-activated receptor gamma (Homo sapiens); experiment: Activity at full length human PPARgamma transfected in CV1 cells assessed as transactivation activity after 24 hrs by PPRE-TK- luciferase reporter gene assay relative to rosiglitazone; format: cell-based; conditions: CV-1
[9] = molecular target: T1, Peroxisome proliferator-activated receptor gamma; experiment: Activity at human PPARgamma transfected in HEK293 cells assessed as transactivation activity by luciferase reporter gene assay; format: cell-based

SMILES: Cc1c(C)n(Cc2ccc(-c3ccccc3C(=O)O)cc2)c2ccc(C(=O)N[C@@H](C)c3ccc([N+](=O)[O-])cc3)cc12
EC50 [1]: Not Active

SMILES: CC[C@@H](OC(=O)N(Cc1ccccc1)C(=O)Nc1cc(OC)cc(OC)c1)c1cc(-c2ccc(OC(C)(C)C(=O)O)cc2)no1
EC50 ([1]; read-out: EC50): 0.38 nM
%max [3]: 70%

SMILES: CCCCCCCCCC(=O)O
%max [4]: 60%

SMILES: C[C@H](CCC(=O)O)C[C@H](C)C[C@H](C)C(=O)/C=C(\O)[C@H](C)C[C@H](C)C/C=C/[C@@H](C)[C@@H](O)[C@@H](C)[C@@H](O)C[C@@H]1CC[C@@](C)([C@H]2CC[C@@](C)([C@@H](C)O)O2)O1
%max [6]: 35%

SMILES: CCCc1nc2c(C)cc(-c3nc4ccccc4n3C)cc2n1Cc1ccc(-c2ccccc2C(=O)O)cc1
EC50 [7]: 4500 nM
%max [8]: 30%

SMILES: Cc1oc(-c2ccccc2)nc1CCOc1ccc(C[C@@H](NC(=O)/C=C/c2ccco2)C(=O)O)cc1
EC50 [9]: 155 nM

The remaining lines, values ahead:

EC50 [2]: Not Active
SMILES: Cc1c(C)n(Cc2ccc(-c3ccccc3C(=O)O)cc2)c2ccc(C(=O)NCc3cccnc3)cc12

EC50 ([1]; read-out: EC50): 183 nM
%max [3]: 60%
SMILES: CC[C@H](OC(=O)N(Cc1ccccc1)C(=O)Nc1cc(OC)cc(OC)c1)c1cc(-c2ccc(OC(C)(C)C(=O)O)cc2)no1

%max [5]: 30%
SMILES: C[C@@H]1O[C@@H](O[C@@H]2[C@H](O[C@H]3C[C@]4(C)[C@H](C[C@@H](O)[C@@H]5[C@@](C)([C@]6(C)CC[C@H](C(C)(C)O)O6)CC[C@]54C)[C@@]4(C)CC[C@H](O)C(C)(C)[C@H]34)O[C@H](CO)[C@@H](O)[C@@H]2O)[C@H](O)[C@H](O)[C@H]1O

From ChEMBL document CHEMBL3585309, “Peroxisome Proliferator-Activated Receptor γ (PPARγ) and Ligand Choreography: Newcomers Take the Stage” (J Med Chem, 2015)
